From patent US20230365625A1, “METHODS FOR TREATING AND/OR PREVENTING UNDESIRABLE SEQULAE OF NASAL TURBINOPLASTY OR FUNCTIONAL ENDOSCOPIC SINUS SURGERY” (3-D Matrix, Ltd., priority 2022, published 2023)
“And” between values parts separate entries of the source, which are not always exact repeats. Identical values can stand only once.

Legend:
[1] = pH of the supplied solution; assay type: physicochemical; settings: 2.5% weight/volume solution in water
Source text: Details of the Sheep Study—Endoscopic nasal surgery targeting the turbinates and sinuses has become a cornerstone in managing chronic rhinosinusitis. A sheep model was chosen to test treatment of an endoscopic surgical wound deep in the sinuses with PuraSinus (RADA16-I; (SEQ ID NO:1) 2.5% in water) compared to controls as a model for […] in humans both due to the size of the animals and the suitability of the sheep model for comparison with this kind of surgery in humans as described below. PuraSinus (ARTG: 267486; (SEQ ID NO:1)) was supplied by 3-D Matrix Europe SAS as a 2.5% weight/volume solution of synthetic SAPs in water having a pH of about 2.3. Upon contact with physiologic tissue and/or liquid like blood, the pH and/or ionic strength of PuraSinus (SEQ ID NO:1) increases, triggering the self-assembly of the peptides into nanofibers, forming a beta-sheet network similar to an extracellular matrix. At a macroscopic level, the viscous solution forms a hydrogel that seals the opened vessels resulting in hemostasis. PuraSinus (SEQ ID NO:1) is biocompatible and free from infectious agents and is resorbed over time although some residue may remain for ≥30 days. It is supplied sterile in a syringe and delivered through a nozzle supplied by the manufacturer. It is stored at 2-8° C. […]

[2] = test system: Functional Endoscopic Sinus Surgery (FESS) surgical wound; assay type: in vivo, human
Source text: Study design—This study was a retrospective chart review of 94 consecutive human patients who underwent FESS and who were operated on by a single surgeon in a single center in Perth, Western Australia. FIGS. 6A and 6B show a flowchart of patients based on extent of surgery and outcomes. Only patients treated with PuraSinus alone (no other hemostatic agent was used) were included in the analysis. Ethics approval was obtained from St John of Good Health Care Human Research Ethics Committee.
Patient population—The study included adult human patients who underwent FESS procedures and also included patients who underwent FESS in combination with nasal surgery (septoplasty and/or turbinoplasty). Both primary and revision cases were included. Patients were discharged the day after surgery with a recommendation to perform saline nasal irrigations no less than four times a day. Patient characteristics, indication for surgery, extent of surgical intervention, and bleeding and adhesion information was recorded.
Surgical categories—Procedures were performed according to the minimally invasive sinus technique (MIST), including combination of maxillary antrostomy, ethmoidectomies, sphenoidotomies and frontal sinus (Draf Ila, or Draf 111), turbinate reduction and/or septoplasty. FESS procedures were categorized into two groups: complete FESS (including all sinuses—maxillary antrostomy, ethmoidectomy, sphenoidotomy, and frontal sinusotomy) or limited FESS (anything less than complete FESS, usually involves antrostomy and ethmoidectomy). The surgical extent was dictated by the patient's condition and the surgeon's clinical judgement.
Material used—PuraSinus (licensed as PuraStat in Australia, 3D-Matrix)/RADA16-I (SEQ ID NO:1) 2.5% w/v in water is a transparent SAP solution supplied sterile in a pre-filled syringe (available in a 3 mL and 5 mL form) ready for use with a thin application nozzle suited for endoscopic catheter administration. The syringe is stored at between 2° C. and 8° C. At completion of the FESS procedure, PuraSinus was applied to the surgical wound in a thin and even layer as close as possible to the bleeding point. A similar application technique has been outlined previously (M. Lee et al., Int. J. Surg. Case Rep. 41: 461-4 (2017)). […] Tissues treated with the hydrogel were visible via endoscope given the gel's transparency.
Outcomes and objectives—The objectives of this study were to evaluate the effectiveness of PuraSinus in rapidly achieving intraoperative hemostasis and to assess the incidence of delayed bleeding ([…]) and synechiae formation via endoscopic observation of the nasal mucosa at follow-up visits. Primary bleeding was defined as bleeding occurring within 24 hours of surgery.
Data analysis—Statistical analysis was performed using descriptive statistics for continuous variables and patient demographics were reported. The rate of successful hemostasis and incidence of synechiae formation were calculated as a proportion of total patients undergoing FESS.

- pH [1]: about 2.3
SMILES: CC(=O)N[C@@H](CCCNC(=N)N)C(=O)N[C@@H](C)C(=O)N[C@@H](CC(=O)O)C(=O)N[C@@H](C)C(=O)N[C@@H](CCCNC(=N)N)C(=O)N[C@@H](C)C(=O)N[C@@H](CC(=O)O)C(=O)N[C@@H](C)C(=O)N[C@@H](CCCNC(=N)N)C(=O)N[C@@H](C)C(=O)N[C@@H](CC(=O)O)C(=O)N[C@@H](C)C(=O)N[C@@H](CCCNC(=N)N)C(=O)N[C@@H](C)C(=O)N[C@@H](CC(=O)O)C(=O)N[C@@H](C)C(N)=O [PuraSinus, Ac-RADARADARADARADA-NH2]
- Blood transfusion required ([2]; human, in vivo): None of the patients in this study required a blood transfusion
- Secondary bleed, patients ([2]; more than 24 hours after surgery, n of 94): 3
- Secondary bleed, rate ([2]; more than 24 hours after surgery, of 94 patients): 3.2%
- Intervention required for bleeding, patients ([2]; n of 94): 4
- Intervention required, primary bleed, patients ([2]; n of 94): 3
- Intervention required, secondary bleed, patients ([2]; n of 94): 1
- Bleed (postoperative), patients ([2]; n of 94 patients): 6
- Hemostatic effectiveness, patients ([2]; no bleeding or no intervention required, n of 94): 90
- Hemostatic effectiveness, rate ([2]; no bleeding or no intervention required, of 94 patients): 95.7%
- Type of intervention: Cautery + Surgiflo, patients ([2]; of 4 interventions): 1
- Type of intervention: Cautery + additional PuraSinus, patients ([2]; of 4 interventions): 1
- Type of intervention: Cautery alone, patients ([2]; of 4 interventions): 1
- Type of intervention: Packing, patients ([2]; of 4 interventions): 1
- Bleeding patients on anticoagulation/antiplatelets post-op ([2]; of 6 bleeds): 1
- Bleeding patients with suspected or confirmed coagulopathy ([2]; of 6 bleeds): 2
- Patients with postoperative bleeding: Complete FESS ([2]; of 6 bleeds): 1
- Patients with postoperative bleeding: Female ([2]; of 6 bleeds): 5
- Patients with postoperative bleeding: Limited FESS ([2]; of 6 bleeds): 5
- Patients with postoperative bleeding: Male ([2]; of 6 bleeds): 1
- Bleed (postoperative), rate ([2]; of 94 patients): 6.4%
- Intervention required for bleeding, rate ([2]; of 94 patients): 4.3% and 4.2%
- Intervention required, primary bleed, rate ([2]; of 94 patients): 3.2%
- Intervention required, secondary bleed, rate ([2]; of 94 patients): 1.1%
- Re-bleeds in patients with primary or secondary bleeds ([2]; result in words): no re-bleeds recorded
- Hemostasis in the absence of other hemostatic agents and devices ([2]; result in words, most patients): effective hemostasis
- Primary bleed, patients ([2]; within 24 hours of surgery, n of 94): 3
- Primary bleed, rate ([2]; within 24 hours of surgery, of 94 patients): 3.2%
